One compound from patent US9585962B1, “Treatment for actinic keratoses” (priority 2013, dated 2017) can be followed below.

In the data set the test system is actinic keratoses. As to conditions: 0.1% in a dermatologically acceptable cream base.

Structures are written as SMILES.

Regarding `COc1cc2c(c(OC)c1OC)-c1ccc(OC)c(=O)cc1[C@@H](NC(C)=O)CC2` [colchicine], the actinic keratoses cleared is on record as 35-40% and the skin irritation entry is listed as “significant level of skin irritation”.
